In a melting point compilation (Tetko et al.) one finds melting point data, which are given here for 86 compounds.

As usually defined, the melting point is the temperature, or range, at which the solid turns liquid.

As to `Cc1cc(NC(=O)C2CC2)sc1C(=O)O`, the melting point was 184 to 186 °C. In the case of `O=C(O)CCC1NC(=O)NC1=O` (stereo unspecified), the melting point was 169 to 171 °C. With `O=C(O)c1cccc(OCc2ccccc2)c1`, the melting point lay within 113 to 115 °C.

Consider `Cc1ccc(-n2cc(C(=O)O)c(-c3ccccc3)n2)cc1`, for which the melting point was 194 to 196 °C. As to `Cc1sc2ncnc(SCCC(=O)O)c2c1C`, the melting point lay in the range of 187 to 189 °C. The result for `CC1CCCCC1NC(=O)CCl` (stereo unspecified) reads 100 to 102 °C; that for `OC(c1ccc(Cl)cc1)c1cccnc1` (stereo unspecified), 106 to 108 °C; that for `COc1ccc(CNC(=O)CCl)cc1`, 103 to 105 °C.

On to `Cc1cc(N)nn1-c1ccc(F)cc1F`, for which the melting point lay within 120 to 122 °C. The result for `NC(=O)NCc1ccc([N+](=O)[O-])cc1` reads 199 to 201 °C; that for `O=C(O)c1cncc(OCC(F)F)c1`, 166 to 168 °C. On to `COC(=O)c1ccc(O)c(C(C)=O)c1`, for which the melting point lay within 96 to 98 °C. On to `Cc1cc(C(=O)O)ccc1NC(=O)OC(C)(C)C`, for which the melting point was 178 to 180 °C.

Regarding `NS(=O)(=O)c1ccc(CCNC(=O)CCl)cc1`, the melting point was in the range of 145 to 148 °C. `COc1ccc2c(c1)C(=NO)C(=O)N2` showed a melting point of 236 to 238 °C. In the case of `Cc1ccc(N)cc1S(=O)(=O)N1CCCCCC1`, the melting point lay within 44 to 46 °C.

The compound `CC(C)Cn1ncnc1CO` yielded a melting point of 92 to 94 °C. In the case of `ClCCc1nnnn1-c1ccccc1` it was 45 to 47 °C. In turn, `CNS(=O)(=O)c1cc(C(=O)O)ccc1OC` came in with a melting point of 221 to 223 °C.

`COc1ccc(-c2nc(N)sc2C)cc1OC` registered a melting point of 185 to 187 °C. In turn, `CC(=O)COc1ccc2cc(Br)ccc2c1` registered a melting point of 106 to 108 °C.

Take `O=C1CCNc2ncccc2N1`: the melting point was 263 to 265 °C. `CCNC(=O)c1cc(Cl)ccc1N` gave a melting point of 122 to 124 °C.

For the compound `CCOc1cc(C#N)cc(Cl)c1O`, the melting point was 126 to 128 °C. On to `CCOC(=O)C(NS(C)(=O)=O)C(=O)OCC`, for which the melting point is 72 to 74 °C. `[N-]=[N+]=Nc1cccc2cccnc12`: the melting point was in the range of 42 to 44 °C. For the compound `CCc1sc(=O)[nH]c1-c1ccccc1`, the melting point fell in the range of 136 to 138 °C. For `O=C(O)c1cccc2[nH]ccc12`, the melting point fell in the range of 213 to 214 °C. `O=C(O)COc1cccc(N2CCCC2=O)c1` returned a melting point of 169 to 171 °C.

Take `C#Cc1ccc(C(=O)O)cn1`: the melting point was in the range of 129 to 131 °C. `O=C(O)CSc1nnc(-c2ccc(F)cc2)n1CC1CCCO1` (stereo unspecified): the melting point fell in the range of 131 to 133 °C. In the case of `Cc1cc2oc(=O)cc(CCl)c2cc1C(C)C` it was 132 to 134 °C. Consider `O=C(O)CCC(=O)c1ccc2ccc3cccc4ccc1c2c34`, for which the melting point fell in the range of 184 to 186 °C.

In the case of `N[C@H]1CC[C@@H](CO)CC1`, the melting point fell in the range of 144 to 146 °C. `N#Cc1ccc(NC(=O)CCCl)cc1`: the melting point lay within 152 to 154 °C. In the case of `CC(NC(N)=S)c1ccc(Cl)cc1Cl` (stereo unspecified), the melting point lay in the range of 164 to 166 °C. `Cc1ncc(N)s1` returned a melting point of 120 to 122 °C.

Consider `O=S(=O)(Cl)c1ccc2nc(Cl)c(Cl)nc2c1`, for which the melting point was in the range of 88 to 90 °C. `O=C(CCl)Nc1ccc(C(=O)O)cc1` gave a melting point of 230 to 232 °C.

With `CCCC1CCC(=O)NC1=O` (stereo unspecified), the melting point lay within 76 to 78 °C.

`O=C(O)c1ccccc1NS(=O)(=O)c1ccc(Cl)c([N+](=O)[O-])c1` came in with a melting point of 211 to 213 °C.

Compound `Nc1ncnc2c(F)cc(Br)cc12` registered a melting point of 343 to 345 °C. On to `Cc1c(C(=O)CBr)oc2ccccc12`, for which the melting point was in the range of 110 to 112 °C. Take `NC(=O)Cc1nc2ccccc2[nH]1`: the melting point is 229 to 231 °C.

Take `Clc1ccc2nc(-c3ccccn3)[nH]c2c1`: the melting point was in the range of 133 to 135 °C. `Fc1c(Br)cncc1Br` gave a melting point of 97 to 99 °C. `CC1(C(=O)O)CCCN(C(=O)c2ccccc2)C1` (stereo unspecified) returned a melting point of 151 to 153 °C.

The compound `Cc1ccc(C(=O)N(C)C)cc1O` registered a melting point of 153 to 155 °C. As to `NC(=O)c1ccc(N2CCNCC2)nc1`, the melting point lay within 195 to 197 °C. `Cc1ccc(F)c2c1C(=O)C(=O)N2` showed a melting point of 204 to 206 °C. For the compound `Cc1ccnn1-c1ccc(C(=O)O)cc1`, the melting point fell in the range of 243 to 245 °C. The result for `CC(=O)NCc1ccc(S(=O)(=O)NCC(=O)O)s1` reads 192 to 194 °C; that for `N#Cc1ccc(C(=O)NNC(=O)CCl)cc1`, 185 to 187 °C; that for `CC(O)(Cc1ccccc1)C(=O)O` (stereo unspecified), 90 to 92 °C. `N#Cc1cc2ccccc2[nH]c1=O` showed a melting point of 327 to 329 °C.

The compound `CS(=O)(=O)Nc1ccc(N)c(Cl)c1` had a melting point of 129 to 131 °C. In the case of `O=C(CCl)NC(Cc1ccccc1)c1ccccc1` (stereo unspecified), the melting point lay within 219 to 221 °C.

In turn, `CC1N=C(S)N(C2CC2)C1=O` (stereo unspecified) returned a melting point of under 17 °C. In the case of `COc1ccc(-c2cc(C(=O)O)[nH]n2)cc1OC` it was 225 to 227 °C; in that of `CS(=O)(=O)Nc1cccc(CN)c1`, 126 to 128 °C. `Brc1ccc2c(c1)c1cc(Br)ccc1n2CC1CO1` (stereo unspecified): the melting point was in the range of 142 to 144 °C. In the case of `CCOC(=O)c1ccc(NC(=O)CCl)cc1`, the melting point fell in the range of 38 to 40 °C.

`CCN(CC)c1ccc(S(=O)(=O)N2CCOCC2)cc1N` registered a melting point of 99 to 101 °C.

`CCn1cnnc1-c1cccc(N)c1` yielded a melting point of 179 to 181 °C. `COc1ccc(C=C2CCCc3c2nc2ccccc2c3C(=O)O)cc1` showed a melting point of 157 to 159 °C. In the case of `O=C(O)C(Sc1ccc(F)cc1F)c1ccccc1` (stereo unspecified) it was 109 to 111 °C. `Cc1ccc(N)cc1S(=O)(=O)Nc1cccc(Cl)c1`: the melting point lay within 158 to 160 °C. In turn, `COc1cccc(-c2cc(N)n(-c3ccc(C)cc3)n2)c1` displayed a melting point of 109 to 111 °C. Consider `O=C(O)C1CC(O)CN1C(=O)COc1ccccc1` (stereo unspecified), for which the melting point was in the range of 157 to 159 °C. Compound `OC1CCCC1n1cccn1` (stereo unspecified) had a melting point of 48 to 50 °C. In the case of `Cc1cc(C(=O)O)on1` it was 199 to 201 °C; in that of `N#Cc1ccc(CSCC(=O)O)cc1`, 86 to 88 °C; in that of `O=C1CCc2ccc(Br)cc2N1`, 176 to 178 °C. Compound `COc1cc(C(=O)O)cc(NS(C)(=O)=O)c1OC` displayed a melting point of 214 to 216 °C. `Nc1cccc(NC(=O)c2cccnc2)c1` came in with a melting point of 155 to 157 °C. `Nn1c(S)nnc1-c1ccco1` showed a melting point of 207 to 209 °C.

Regarding `NC1CCN(c2ccc(Cl)c(Cl)c2)C1=O` (stereo unspecified), the melting point lay within 104 to 106 °C. `O=C(O)c1cc(F)c(O)c(F)c1` registered a melting point of 160 to 162 °C. In turn, `O=C(O)c1ccc(Oc2cccnc2)cc1` returned a melting point of 204 to 206 °C. `O=C(NC1CC1)c1cc(S)nc2ccccc12` showed a melting point of 301 to 303 °C. The result for `N#CCC(=O)c1ccccc1F` reads 51 to 53 °C; that for `COc1c(OC(F)F)ccc(C=O)c1[N+](=O)[O-]`, 61 to 63 °C; that for `Nc1nc2ccccn2n1`, 123 to 125 °C.

In the case of `COc1ccc(Oc2c(F)cc(CCl)cc2F)cc1`, the melting point is 62 to 64 °C. The result for `CC(Oc1ccc(C23CC4CC(CC(C4)C2)C3)cc1)C(=O)O` (stereo unspecified) reads 153 to 155 °C. In turn, `COc1ccc(NS(=O)(=O)c2cc(C(=O)O)ccc2C)cc1` gave a melting point of 71 to 73 °C.
